Measurements: PubChem BioAssay (NCI)
Several values for one entry are separate records, joined by “and”; a condition that tells them apart may be missing. Equal values may be shown once.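 How tested: cells in 96-well plates exposed to compound for 48 hours at five concentrations. Abbreviation: GI50, concentration required for 50% inhibition of growth. The concentration for full growth arrest is given as TGI.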

What was measured:
Assay in all cases: growth of human tumour cells (NCI), 48 h
[1] = system: ACHN renal
[2] = system: CAKI-1 renal
[3] = system: SN12C renal
[4] = system: A498 renal
[5] = system: RXF 393 renal
[6] = system: SF-539 CNS
[7] = system: HCT-15 colon
[8] = system: T-47D breast
[9] = system: SNB-75 CNS
[10] = system: K-562 leukemia
[11] = system: SF-295 CNS
[12] = system: HOP-62 NSCLC
[13] = system: SNB-19 CNS
[14] = system: SK-MEL-2 melanoma
[15] = system: UACC-257 melanoma
[16] = system: MOLT-4 leukemia
[17] = system: CCRF-CEM leukemia
[18] = system: HL-60(TB) leukemia
[19] = system: DU-145 prostate
[20] = system: EKVX NSCLC
[21] = system: RPMI-8226 leukemia
[22] = system: UACC-62 melanoma
[23] = system: IGROV1 ovarian
[24] = system: SW-620 colon
[25] = system: HT29 colon
[26] = system: OVCAR-5 ovarian
[27] = system: OVCAR-3 ovarian
[28] = system: HS 578T breast
[29] = system: BT-549 breast
[30] = system: NCI/ADR-RES ovarian
[31] = system: SK-MEL-28 melanoma
[32] = system: NCI-H23 lung
[33] = system: KM12 colon
[34] = system: MCF7 breast
[35] = system: COLO 205 colon
[36] = system: NCI-H226 lung
[37] = system: SF-268 CNS
[38] = system: MDA-MB-435
[39] = system: M14 melanoma
[40] = system: 786-0 renal
[41] = system: OVCAR-8 ovarian
[42] = system: SK-OV-3 ovarian
[43] = system: HOP-92 NSCLC
[44] = system: NCI-H460 lung
[45] = system: TK-10 renal
[46] = system: PC-3 prostate
[47] = system: LOX IMVI melanoma
[48] = system: SK-MEL-5 melanoma
[49] = system: NCI-H522 lung
[50] = system: UO-31 renal
[51] = system: SR leukemia
[52] = system: MDA-MB-231 breast
[53] = system: OVCAR-4 ovarian
[54] = system: HCC-2998 colon
[55] = system: U251 CNS
[56] = system: HCT-116 colon
[57] = system: A549 NSCLC
[58] = system: MALME-3M melanoma

COc1cc(/C=C/c2cc(/C=C/c3ccc(O)c(OC)c3)n(C(=O)Nc3ccc(F)cc3)n2)ccc1O
GI50 [1]: 704 nM
TGI [1]: 61200 nM
GI50 [2]: 770 nM
TGI [2]: 49500 nM
GI50 [3]: 953 nM
TGI [3]: 34100 nM
GI50 [4]: 2420 nM
TGI [4]: 6460 nM
GI50 [5]: 268 nM
TGI [5]: 994 nM
GI50 [6]: 460 nM
TGI [6]: 5310 nM
GI50 [7]: 566 nM
TGI [7]: 21800 nM
GI50 [8]: 2400 nM
TGI [8]: 9990 nM
GI50 [9]: 551 nM
TGI [9]: 9480 nM
GI50 [10]: 371 nM
TGI [10]: 2910 nM
GI50 [11]: 2630 nM
TGI [11]: 29700 nM
GI50 [12]: 1070 nM
TGI [12]: 9360 nM
GI50 [13]: 1230 nM
TGI [13]: 22700 nM
GI50 [14]: 515 nM
TGI [14]: 3320 nM
GI50 [15]: 2170 nM
TGI [15]: 9120 nM
GI50 [16]: 471 nM
TGI [16]: > 22800 nM
GI50 [17]: 367 nM
TGI [17]: 9570 nM
GI50 [18]: 364 nM
TGI [18]: 1930 nM
GI50 [19]: 1530 nM
TGI [19]: 11400 nM
GI50 [20]: 3050 nM
TGI [20]: 43700 nM
GI50 [21]: 454 nM
TGI [21]: 3370 nM
GI50 [22]: 817 nM
TGI [22]: 6680 nM
GI50 [23]: 2380 nM
TGI [23]: 34300 nM
GI50 [24]: 504 nM
TGI [24]: 10600 nM
GI50 [25]: 2030 nM
TGI [25]: 4690 nM
GI50 [26]: 3990 nM
TGI [26]: 45000 nM
GI50 [27]: 474 nM
TGI [27]: 3130 nM
GI50 [28]: 689 nM
TGI [28]: 6110 nM
GI50 [29]: 1180 nM
TGI [29]: > 19700 nM
GI50 [30]: 449 nM
TGI [30]: 27400 nM
GI50 [31]: 912 nM
TGI [31]: 7840 nM
GI50 [32]: 727 nM
TGI [32]: 4450 nM
GI50 [33]: 460 nM
TGI [33]: 9120 nM
GI50 [34]: 402 nM
TGI [34]: 7660 nM
GI50 [35]: 2090 nM
TGI [35]: 3700 nM
GI50 [36]: 2620 nM
TGI [36]: 9790 nM
GI50 [37]: 602 nM
TGI [37]: 10000 nM
GI50 [38]: 214 nM
TGI [38]: 561 nM
GI50 [39]: 460 nM
TGI [39]: 7500 nM
GI50 [40]: 1080 nM
TGI [40]: 6800 nM
GI50 [41]: 1500 nM
TGI [41]: 4790 nM
GI50 [42]: 1040 nM
TGI [42]: 4330 nM
GI50 [43]: 2120 nM
TGI [43]: 8070 nM
GI50 [44]: 546 nM
TGI [44]: 12400 nM
GI50 [45]: 3430 nM
TGI [45]: 19200 nM
GI50 [46]: 957 nM
TGI [46]: 12800 nM
GI50 [47]: 476 nM
TGI [47]: 4260 nM
GI50 [48]: 418 nM
TGI [48]: 3250 nM
GI50 [49]: 250 nM
TGI [49]: 1210 nM
GI50 [50]: 587 nM
TGI [50]: 6270 nM
GI50 [51]: 278 nM
GI50 [52]: 2160 nM
TGI [52]: > 65300 nM
GI50 [53]: 1360 nM
TGI [53]: 7570 nM
GI50 [54]: 2530 nM
TGI [54]: 10600 nM
GI50 [55]: 769 nM
TGI [55]: 10500 nM
GI50 [56]: 422 nM
TGI [56]: 10300 nM
GI50 [57]: 2440 nM
TGI [57]: 18300 nM
GI50 [58]: 743 nM
TGI [58]: 7850 nM

NC1CCC(Nc2nc(NCc3ccc(-c4ccco4)nc3)c3ncn(C4CCCC4)c3n2)CC1 (stereo not given)
GI50 [1]: 242 nM
GI50 [2]: 2860 nM
TGI [2]: 12600 nM
GI50 [3]: 37.1 nM
TGI [3]: 11600 nM
GI50 [4]: 31.1 nM
TGI [4]: 94.1 nM
GI50 [5]: 17.9 nM
TGI [5]: 40 nM
GI50 [6]: 37.9 nM
TGI [6]: 204 nM
GI50 [7]: 298 nM and 1270 nM
TGI [7]: 7810 nM
GI50 [8]: 24.9 nM
GI50 [9]: 10.1 nM
TGI [9]: 29.9 nM
GI50 [10]: 41.7 nM
TGI [10]: 1170 nM
GI50 [11]: 75.1 nM
GI50 [12]: 23.8 nM
TGI [12]: 80.6 nM
GI50 [13]: 27.5 nM
TGI [13]: 12500 nM
GI50 [14]: 34 nM
TGI [14]: 145 nM
GI50 [15]: 27.7 nM
TGI [15]: 88 nM
GI50 [16]: 22.2 nM
GI50 [17]: 36.2 nM
TGI [17]: 1880 nM
GI50 [18]: 19.3 nM
TGI [18]: 72.9 nM
GI50 [19]: 42.6 nM
TGI [19]: 12200 nM
GI50 [20]: 46.5 nM
TGI [20]: 538 nM and 242 nM
GI50 [21]: 11.9 nM
TGI [21]: 89.5 nM
GI50 [22]: 37.7 nM
TGI [22]: 223 nM
GI50 [23]: 35.1 nM
TGI [23]: 10700 nM
GI50 [24]: 11.7 nM
TGI [24]: 11500 nM
GI50 [25]: 8.01 nM
GI50 [26]: 32.4 nM
TGI [26]: 14100 nM
GI50 [27]: 27.3 nM
TGI [27]: 77.8 nM
GI50 [28]: 20.5 nM
TGI [28]: 95.5 nM and 347 nM
GI50 [29]: 26.4 nM
TGI [29]: 74.6 nM
TGI [30]: 1390 nM
GI50 [31]: 22.7 nM
TGI [31]: 68.6 nM
GI50 [32]: 26.4 nM
TGI [32]: 95.3 nM
GI50 [33]: 10.7 nM
TGI [33]: 86 nM
GI50 [34]: 26.7 nM
TGI [34]: 1220 nM
GI50 [35]: 14.3 nM
TGI [35]: 31.4 nM
GI50 [36]: 126 nM
GI50 [37]: 11 nM
TGI [37]: 169 nM and 1300 nM
GI50 [38]: 22.5 nM
TGI [38]: 1240 nM
GI50 [39]: 21.3 nM
TGI [39]: 193 nM
GI50 [40]: 73.2 nM
TGI [40]: 1800 nM
GI50 [41]: 43.1 nM
GI50 [42]: 49 nM
TGI [42]: 15600 nM
GI50 [43]: 27.5 nM
TGI [43]: 80.3 nM
GI50 [44]: 46.9 nM
TGI [44]: 11300 nM
GI50 [45]: 160 nM
TGI [45]: 12800 nM
GI50 [46]: 30.7 nM
TGI [46]: 206 nM and 1690 nM
TGI [47]: 21900 nM
GI50 [48]: 91.3 nM
TGI [48]: 1020 nM
GI50 [49]: 16.4 nM
TGI [49]: 73.7 nM
GI50 [50]: 170 nM
TGI [50]: 747 nM
GI50 [51]: 34.9 nM
TGI [51]: 190 nM
GI50 [52]: 13.7 nM
GI50 [53]: 30.7 nM
GI50 [54]: 31.6 nM
TGI [54]: 627 nM
GI50 [55]: 34.4 nM
TGI [55]: 12600 nM
GI50 [56]: 32.4 nM
TGI [56]: 11100 nM
GI50 [57]: 27.3 nM
TGI [57]: 14400 nM
GI50 [58]: 35 nM
TGI [58]: 212 nM
